One series in a line: physchem. Conditions: for solubility at 5 min: thermodynamic from solid. As to the method: All experiments were performed at ambient temperature. Each model substance was weighted into test tubes, and a precise volume of each solvent mixture was added in order to obtain saturated solutions. The test tubes were vortexed for 5 min and subsequently centrifuged (12000 rpm during 15 min at 25° C.). An aliquot of the supernatant was diluted for UV-spectrophotometric assay. Absorbance measurements were made at wavelengths adapted to each studied molecule. High Performance Liquid Chromatography (HPLC-DAD) was used for Rosmarinic Acid (RA) quantification. Determination of Radical Scavenging Capacity was conducted through DPPH assay.
Each experiment was performed in triplicate.
The solubilisation power of aqueous Pentylene Glycol solutions (from 0 to 100% of PG) for five different model substances was compared to that of 80 wt. % aqueous ethanol.
Various mixtures of bio-based PG and bio-based caprylyl glycol (CG) were explored for dissolving hesperidin. The proportion of bio-based caprylyl glycol ranged from 0 to 30%.
Regarding solubility in the ternary mixture of PG/CG/water, six different mixtures out of the monophasic region of the ternary system were prepared (see FIG. 2): Three water-rich solvent mixtures, one with a high percentage of PG, one with a high percentage of CG and one with a similar percentage of all three components. All the alkanediols used in this study were bio-based or “green”.

Series [1] in a line: Ternary phase diagrams PG/water/lipophilic ingredient (monophasic region). Conditions: with 85% PG, 10% water.
Method: The ternary systems studied consisted of water and an organic solvent that is immiscible with water. A third liquid was added that is soluble in each of the other two components. This third liquid acts as a hydrotrope, which increases the solubility of the two immiscible liquids in each other. The white areas indicate a single-phase mixture (clear solution), while the grey areas show a biphasic mixture.
Binary mixtures of water and PG (0:100, 10:90, 20:80, 30:70, 40:60, 50:50, 60:40, 70:30, 80:20, 90:10, 100:0) were prepared in test tubes. Then the selected monoterpenes (carvacrol, carvone, geraniol, limonene, α-pinene, α-terpinene) were added dropwise (10 μL) to the binary mixtures and mixed. The addition of the monoterpenes was continued until the clear liquid changed to a turbid liquid. The test tubes were then shaken for 2 minutes and allowed to settle for 24 hours to check whether or not the biphasic liquid changed to a monophasic liquid. In the case of thymol, very small amounts of the solid sample were added to the binary mixtures of water/PG until a turbid liquid was visible to the naked eye.
Essential oils (thyme, citronella, eucalyptus and lavender) were added dropwise to the binary mixtures of water/PG until a turbid liquid was observed. After the addition of each drop (10 μL) and mixing, the samples were rested for 2 minutes to see whether there is a phase separation or not. […]
Where [2] appears, read: 25 °C, organic solvent or mixture.
The mark [3] stands for this setting: aqueous with cosolvent or surfactant or cyclodextrin.

Values after ≈ are worked out from the molar mass of the structure shown. Read-outs that look alike come from different tables or passages of the source.

Consider `CC1=C(/C=C/C(C)=C/C=C/C(C)=C/C=C/C=C(C)/C=C/C=C(C)/C=C/C2=C(C)CCCC2(C)C)C(C)(C)CCC1` [B-C, β-carotene], for which the Solubility entry in the series “physchem” was “completely insoluble”. In the series “physchem” (ternary point 4 versus hexane), the “Amount dissolved compared to hexane” value is “three times more”.
As for `COc1cc(/C=C/C(=O)CC(=O)/C=C/c2ccc(O)c(OC)c2)ccc1O` [CU, Curcumin], the solubility – broadly, the dissolved amount per volume that the medium holds – at 5 min worked out at 1.9 ± 0.045 mg/mL (≈ 5.16 mM) in “physchem” (25 °C, aqueous with cosolvent or surfactant or cyclodextrin); 5.85 ± 0.31 mg/mL (≈ 15.9 mM) in the series “physchem” (setting [2]); 0.0005 mg/mL (≈ 0.00136 mM) in “physchem” (25 °C, water); 3.65 ± 0.22 mg/mL (≈ 9.91 mM) in the series “physchem” (setting [3]); 7.9 mg/mL (≈ 21.4 mM) in the series “physchem” (organic solvent or mixture). For the same compound, the “Solubility compared to 80% ethanol” value in “physchem” (5 min) is listed as 1.6 fold.
`O=C(O)c1cc(O)c(O)c(O)c1` [GA, Gallic acid]: the “Solubility in 70% PG relative to water (factor)” value in the series “physchem” is about 12.4 times. For the same compound, the solubility at 5 min came out at 42 ± 0.54 mg/mL (≈ 247 mM) in “physchem” (setting [2]); 10.5 ± 1.1 mg/mL (≈ 61.7 mM) in “physchem” (25 °C, water); 95.1 ± 8.12 mg/mL (≈ 559 mM) in “physchem” (setting [3]). Moreover, in “physchem” (5 min), the “Solubility in 100% PG compared to that of 70% PG” value is listed as 32.3%. In addition, in the series “physchem” (5 min), the “Solubilization power relative to 80% ethanol” value is listed as 58.75%.
Take `COc1ccc([C@@H]2CC(=O)c3c(O)cc(O[C@@H]4O[C@H](CO[C@@H]5O[C@@H](C)[C@H](O)[C@@H](O)[C@H]5O)[C@@H](O)[C@H](O)[C@H]4O)cc3O2)cc1O` [HE, Hesperidin]: the “Solubilisation power relative to 80% ethanol” value in “physchem” (5% CG in PG versus 80% ethanol) is given as 82.4%. Further, in the series “physchem” (5% CG in PG versus PG alone), the “Solubility compared to PG alone” value amounted to 5 times. Also, the Solubility in “physchem” ((PG:CG) solution, 1% CG) was 0.078 ± 0.005 g/litre of solvent; in “physchem” ((PG:CG) solution, 5% CG), 0.11 ± 0.006 g/litre of solvent; in “physchem” ((PG:CG) solution, 10% CG), 0.071 ± 0.003 g/litre of solvent; in “physchem” ((PG:CG) solution, 20% CG), 0.071 ± 0.007 g/litre of solvent; in “physchem” ((PG:CG) solution, 30% CG) it was 0.06 ± 0.01 g/litre of solvent; in “physchem” (solvent 10% PG in water, ambient temperature) it was 0.013 ± 0.003 g/litre of solvent. Besides, the Solubility in “physchem” (solvent 30% PG in water, ambient temperature) is 0.177 ± 0.006 g/litre of solvent; in the series “physchem” (solvent 50% PG in water, ambient temperature) it was 0.218 ± 0.024 g/litre of solvent; in the series “physchem” (solvent 70% PG in water, ambient temperature) it was 0.19 ± 0.011 g/litre of solvent; in the series “physchem” (solvent 80% EtOH, ambient temperature), 0.13 ± 0.009 g/litre of solvent; in the series “physchem” (solvent 90% PG in water, ambient temperature), 0.118 ± 0.012 g/litre of solvent; in the series “physchem” (solvent 100% H2O, ambient temperature) it was 0.00 g/litre of solvent. The Solubility entry was “completely insoluble” in the series “physchem” (solvent 100% H2O, ambient temperature, listed as He); 0.0216 ± 0.002 g/litre of solvent in “physchem” (solvent 100% PG, ambient temperature); 0.022 ± 0.002 g/litre of solvent in “physchem” (solvent 100% PG, ambient temperature, listed as Hesperidin). For the same compound, the “Concentration of natural substance in a saturated solution” value in the series “physchem” (ternary mixture No 1: 64.7% PG, 17.6% CG, 17.7% H2O) was determined as 340 ± 30 µg/mL; in “physchem” (ternary mixture No 2: 37.5% PG, 31.2% CG, 31.3% H2O), 440 ± 30 µg/mL; in “physchem” (ternary mixture No 3: 31.2% PG, 12.5% CG, 56.3% H2O), 460 ± 10 µg/mL; in “physchem” (ternary mixture No 4: 32.1% PG, 55.1% CG, 12.8% H2O) it was 300 ± 30 µg/mL; in the series “physchem” (ternary mixture No 5: 25% PG, 12.5% CG, 62.5% H2O), 400 ± 30 µg/mL; in the series “physchem” (ternary mixture No 6: 16.65% PG, 8.9% CG, 74.45% H2O), 310 ± 10 µg/mL. Also, the “Concentration relative to 80% ethanol” value in the series “physchem” (ternary mixture No. 3 versus 80% ethanol) is listed as 3.6 times.
Take `O=C(/C=C/c1ccc(O)c(O)c1)O[C@H](Cc1ccc(O)c(O)c1)C(=O)O` [RA, Rosmarinic Acid]: the “Solubilisation power relative to water” value in the series “physchem” was determined as 27.2 times. Besides, in “physchem”, the “Solubilisation relative to water” value is listed as 26.8 times. For the same compound, the solubility at 5 min in the series “physchem” (setting [2]) stood at 12.8 ± 1.2 mg/mL (≈ 35.5 mM); in the series “physchem” (25 °C, water), 6.6 ± 2.4 mg/mL (≈ 18.3 mM); in the series “physchem” (setting [3]) it was 302 ± 9.4 mg/mL (≈ 839 mM). Besides, the “Solubility relative to solubility in 80% ethanol” value in “physchem” (5 min) amounted to 92%.
Turning to `C=C(C)[C@H]1CC=C(C)CC1` [limonene], in series [1], the “Proportion in a self-stabilized ternary mixture” value turned out to be 5%.

The values above are taken from patent US20240245741A1, “EXTRACTION METHOD USING AN AQUEOUS ALKANEDIOL” (Minasolve SAS, priority 2021, published 2024).
